The text below walks through data of US12378243B2, “Quinoline compounds as inhibitors of KRAS” (Incyte Corporation, priority 2021, dated 2025).

The target of one series is KRAS G12D (Homo sapiens, UniProt P01116, G12D). The series can be described thus: GDP-GTP exchange assay, KRAS G12D. The note with it: bodipy-loaded KRAS G12D 2.5 nM, GppNHp 500 uM, SOS1 150 nM; 4 hours pre-incubation, 2 hours incubation; read-out: G12D_exchange. The format is biochemical. The protocol:
Inhibitors were serially diluted in DMSO and a volume of 0.1 μL was transferred to the wells of a black low volume 384-well plate. […] The exchange was initiated by the addition of a 5 μL/well volume containing 1 mM GppNHp and 300 nM SOS1 in assay buffer. […] The reaction plates were incubated at ambient temperature for 2 hours, a time estimated for complete GDP-GTP exchange in the absence of inhibitor.
Either GraphPad prism or Genedata Screener SmartFit was used to analyze the data. The IC50 values were derived by fitting the data to a four parameter logistic equation producing a sigmoidal dose-response curve with a variable Hill coefficient.
“NA” indicates IC50 not available.

The target of another series is KRAS G12V mutant (Homo sapiens, UniProt P01116, G12V). The series can be described thus: GDP-GTP exchange assay, KRAS G12V. The format is biochemical. The note with it: bodipy loaded KRAS G12V 2.5 nM; 3 hours incubation after adding GppNHp-SOS1 mixture; read-out: G12V_exchange.
Sequence of KRAS G12V mutant (P01116 1-188 isoform P01116-2 G12V): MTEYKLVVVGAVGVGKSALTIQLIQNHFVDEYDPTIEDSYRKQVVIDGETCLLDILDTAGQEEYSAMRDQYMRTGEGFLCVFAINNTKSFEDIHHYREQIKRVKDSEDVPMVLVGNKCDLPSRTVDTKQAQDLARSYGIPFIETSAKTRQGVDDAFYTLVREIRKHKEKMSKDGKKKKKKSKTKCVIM
In another series the test system is Caco-2 cells. Nature of the series: Caco2 assay (permeability, A-B). The format is in vitro ADME. The note with it: Papp absorptive direction (A-B), test compound 50 μM, 120 minutes at 37° C. The protocol: Caco-2 cells are grown at 37° C. in an atmosphere of 5% CO2 in DMEM growth medium supplemented with 10% (v/v) fetal bovine serum, 1% (v/v) nonessential amino acids, penicillin (100 U/mL), and streptomycin (100 μg/mL). Confluent cell monolayers are subcultured every 7 days or 4 days for Caco-2 by treatment with 0.05% trypsin containing […]. Caco-2 cells are seeded in 96-well Transwell plates. The seeding density for Caco-2 cells is 14,000 cells/well. DMEM growth medium is replaced every other day after seeding. Cell monolayers are used for transport assays between 22 and 25 days for Caco-2 cells.
Cell culture medium is removed and replaced with HBSS. To measure the TEER, the HBSS is added into the donor compartment (apical side) and receiver compartment (basolateral side). The TEER is measured by using a REMS Autosampler to ensure the integrity of the cell monolayers. Caco-2 cell monolayers with TEER values ≥300 Ω·cm^2 are used for transport experiments. To determine the Papp in the absorptive direction (A-B), solution of test compound (50 μM) in HBSS is added to the donor compartment (apical side), while HBSS solution with 4% BSA is added to the receiver compartment (basolateral side). The apical volume was 0.075 mL, and the basolateral volume is 0.25 mL. The incubation period is 120 minutes at 37° C. in an atmosphere of 5% CO2. At the end of the incubation period, samples from the donor and receiver sides are removed and an equal volume of acetonitrile is added for protein precipitation. The supernatants are collected after centrifugation (3000 rpm, Allegra X-14R Centrifuge from Beckman Coulter, Indianapolis, IN) for LCMS analysis. The permeability value is determined according to the equation:
[formula] • where the flux rate (F, mass/time) is calculated from the slope of cumulative amounts of compound of interest on the receiver side, SA is the surface area of the cell membrane, VD is the donor volume, and MD is the initial amount of the solution in the donor chamber.
The symbol “+” indicates a Caco-2 value of […], “++” indicates a Caco-2 value of >0.5 but ≤1; and “+++” indicates a Caco-2 value of >1. “NA” indicates IC50 not available.

Sequence of KRAS G12D (P01116 1-188 isoform P01116-2 G12D): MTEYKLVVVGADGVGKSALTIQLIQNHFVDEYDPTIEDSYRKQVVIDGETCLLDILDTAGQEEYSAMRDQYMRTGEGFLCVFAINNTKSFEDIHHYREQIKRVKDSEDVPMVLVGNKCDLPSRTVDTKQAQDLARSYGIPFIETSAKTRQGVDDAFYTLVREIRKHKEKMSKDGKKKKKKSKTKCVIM

For the compound `Cc1cc2c(O[C@@H](C)[C@@H]3CCCN3C)nc3c(F)c(-c4cccc5ccc(F)cc45)c(CCC#N)cc3c2n1[C@H]1[C@H]2CN[C@@H]1C2` [Example 27, 3-(1-((1R,4R,5S)-2-Azabicyclo[2.1.1]hexan-5-yl)-6-fluoro-7-(7-fluoronaphthalen-1-yl)-2-methyl-4-((S)-1-((S)-1-methylpyrrolidin-2-yl)ethoxy)-1H-pyrrolo[3,2-c]quinolin-8-yl)propanenitrile], the IC50 at KRAS G12D and at KRAS G12V mutant was less than 0.1 µM each time. Besides, the Caco-2 result in the series on Caco-2 cells (Table 3) is recorded as “+ (a Caco-2 value of 50.5)”.

In the case of `CN(C)C(=O)N1CCC[C@@H]1c1cc2c(-n3cncn3)nc3c(F)c(-c4cccc(Cl)c4Cl)c(CCC#N)cc3c2n1[C@H]1[C@H]2CN[C@@H]1C2` [Example 28, (2R)-2-(1-((1R,4R,5S)-2-azabicyclo[2.1.1]hexan-5-yl)-8-(2-cyanoethyl)-7-(2,3-dichlorophenyl)-6-fluoro-4-(1H-1,2,4-triazol-1-yl)-1H-pyrrolo[3,2-c]quinolin-2-yl)-N,N-dimethylpyrrolidine-1-carboxamide], the IC50 on KRAS G12D is less than 0.1 µM; on KRAS G12V mutant it was 0.1 to 1 µM. For the same compound, the Caco-2 result with Caco-2 cells (Table 4) is reported as “+++ (a Caco-2 value of >1)”.

As to `COC(=O)N1CCC[C@@H]1c1cc2c(-n3cncn3)nc3c(F)c(-c4cccc(C)c4Cl)c(CCC#N)cc3c2n1[C@H]1[C@H]2CN[C@@H]1C2` [Example 29, Methyl (2R)-2-(1-((1R,4R,5S)-2-azabicyclo[2.1.1]hexan-5-yl)-7-(2-chloro-3-methylphenyl)-8-(2-cyanoethyl)-6-fluoro-4-(1H-1,2,4-triazol-1-yl)-1H-pyrrolo[3,2-c]quinolin-2-yl)pyrrolidine-1-carboxylate], the IC50 on KRAS G12D and at KRAS G12V mutant was less than 0.1 µM throughout. For the same compound, in the series with Caco-2 cells (Table 4), the Caco-2 entry is reported as “+++ (a Caco-2 value of >1)”.

Take `COC(=O)N1[C@@H](c2cc3c(-c4ccc(C(=O)N(C)C)nc4)nc4c(F)c(-c5cccc(Cl)c5Cl)c(CCC#N)cc4c3n2[C@H]2[C@H]3CN[C@@H]2C3)C[C@@H]2C[C@@H]21` [Example 30, Methyl (1S,3R,5S)-3-(1-((1R,4R,5S)-2-azabicyclo[2.1.1]hexan-5-yl)-8-(2-cyanoethyl)-7-(2,3-dichlorophenyl)-4-(6-(dimethylcarbamoyl)pyridin-3-yl)-6-fluoro-1H-pyrrolo[3,2-c]quinolin-2-yl)-2-azabicyclo[3.1.0]hexane-2-carboxylate]: the IC50 at KRAS G12D and at KRAS G12V mutant was less than 0.1 µM in each case. Moreover, the Caco-2 result in the series on Caco-2 cells (Table 4) is recorded as “+++ (a Caco-2 value of >1)”.

As to `COC(=O)N1CCC[C@@H]1c1cc2c(-c3ccc(C(=O)N(C)C)nc3)nc3c(F)c(-c4cccc(Cl)c4Cl)c(CCC#N)cc3c2n1[C@H]1[C@H]2CN[C@@H]1C2` [Example 32, Methyl (2R)-2-(1-((1R,4R,5S)-2-azabicyclo[2.1.1]hexan-5-yl)-8-(2-cyanoethyl)-7-(2,3-dichlorophenyl)-4-(6-(dimethylcarbamoyl)pyridin-3-yl)-6-fluoro-1H-pyrrolo[3,2-c]quinolin-2-yl)pyrrolidine-1-carboxylate], the IC50 on KRAS G12D and on KRAS G12V mutant was less than 0.1 µM in each case. Besides, in the series with Caco-2 cells (Table 4), the Caco-2 result is “++ (a Caco-2 value of >0.5 but ≤1)”.

Turning to `CNC(=O)c1ccc(-c2nc3c(F)c(-c4cccc(Cl)c4Cl)c(CCC#N)cc3c3c2cc([C@H]2CCCN2C(=O)OC)n3[C@H]2[C@H]3CN[C@@H]2C3)cn1` [Example 33, Methyl (2R)-2-(1-((1R,4R,5S)-2-azabicyclo[2.1.1]hexan-5-yl)-8-(2-cyanoethyl)-7-(2,3-dichlorophenyl)-6-fluoro-4-(6-(methylcarbamoyl)pyridin-3-yl)-1H-pyrrolo[3,2-c]quinolin-2-yl)pyrrolidine-1-carboxylate], the IC50 at KRAS G12D and at KRAS G12V mutant was less than 0.1 µM in each case. Also, the Caco-2 result in the series on Caco-2 cells (Table 4) is “++ (a Caco-2 value of >0.5 but ≤1)”.

For `Cc1nc2c(F)c(-c3cccc(F)c3Cl)c(CCC#N)cc2c2c1cc([C@H]1CCCN1C(=O)C1CC1)n2[C@H]1[C@H]2CN[C@@H]1C2` [Example 34, 3-(1-((1R,4R,5S)-2-Azabicyclo[2.1.1]hexan-5-yl)-7-(2-chloro-3-fluorophenyl)-2-((R)-1-(cyclopropanecarbonyl)pyrrolidin-2-yl)-6-fluoro-4-methyl-1H-pyrrolo[3,2-c]quinolin-8-yl)propanenitrile], the IC50 at KRAS G12D is less than 0.1 µM; at KRAS G12V mutant, 0.1 to 1 µM. In the series on Caco-2 cells (Table 4), the Caco-2 result is recorded as “+ (a Caco-2 value of 50.5)”.

Turning to `C[C@H](c1cc2c(-c3ccc(C(C)(C)O)nc3)nc3c(F)c(-c4cccc5ccc(F)cc45)c(CCC#N)cc3c2n1[C@H]1[C@H]2CN[C@@H]1C2)n1ccncc1=O` [Example 37, 3-(1-((1R,4R,5S)-2-Azabicyclo[2.1.1]hexan-5-yl)-6-fluoro-7-(7-fluoronaphthalen-1-yl)-4-(6-(2-hydroxypropan-2-yl)pyridin-3-yl)-2-((R)-1-(2-oxopyrazin-1(2H)-yl)ethyl)-1H-pyrrolo[3,2-c]quinolin-8-yl)propanenitrile], the IC50 on KRAS G12D and on KRAS G12V mutant was less than 0.1 µM in each case. Moreover, the Caco-2 result in the series with Caco-2 cells (Table 4) is “+++ (a Caco-2 value of >1)”.

Consider `CNC(=O)c1ncc(-c2nc3c(F)c(-c4cccc(Cl)c4Cl)c(CCC#N)cc3c3c2cc([C@H]2CCCN2C(=O)OC)n3[C@H]2[C@H]3CN[C@@H]2C3)cc1F` [Example 39, Methyl (2R)-2-(1-((1R,4R,5S)-2-azabicyclo[2.1.1]hexan-5-yl)-8-(2-cyanoethyl)-7-(2,3-dichlorophenyl)-6-fluoro-4-(5-fluoro-6-(methylcarbamoyl)pyridin-3-yl)-1H-pyrrolo[3,2-c]quinolin-2-yl)pyrrolidine-1-carboxylate], for which the IC50 on KRAS G12D and on KRAS G12V mutant was less than 0.1 µM each time. In the series with Caco-2 cells (Table 4), the Caco-2 entry is on record as “++ (a Caco-2 value of >0.5 but ≤1)”.

Turning to `COC(=O)N1CCC[C@@H]1c1cc2c(-c3ccc(C(C)(C)O)nc3)nc3c(F)c(-c4cccc(Cl)c4Cl)c(CCC#N)cc3c2n1[C@H]1[C@H]2CN[C@@H]1C2` [Example 40, Methyl (2R)-2-(1-((1R,4R,5S)-2-azabicyclo[2.1.1]hexan-5-yl)-8-(2-cyanoethyl)-7-(2,3-dichlorophenyl)-6-fluoro-4-(6-(2-hydroxypropan-2-yl)pyridin-3-yl)-1H-pyrrolo[3,2-c]quinolin-2-yl)pyrrolidine-1-carboxylate], the IC50 on KRAS G12D and on KRAS G12V mutant was less than 0.1 µM in each case. The Caco-2 entry in the series on Caco-2 cells (Table 4) is recorded as “++ (a Caco-2 value of >0.5 but ≤1)”.

For `CCOC(=O)N1CCC[C@@H]1c1cc2c(-c3ccc(C(C)(C)O)nc3)nc3c(F)c(-c4cccc(Cl)c4Cl)c(CCC#N)cc3c2n1[C@H]1[C@H]2CN[C@@H]1C2` [Example 41, Ethyl (2R)-2-(1-((1R,4R,5S)-2-azabicyclo[2.1.1]hexan-5-yl)-8-(2-cyanoethyl)-7-(2,3-dichlorophenyl)-6-fluoro-4-(6-(2-hydroxypropan-2-yl)pyridin-3-yl)-1H-pyrrolo[3,2-c]quinolin-2-yl)pyrrolidine-1-carboxylate], the IC50 at KRAS G12D and at KRAS G12V mutant was less than 0.1 µM each time. Further, the Caco-2 entry in the series with Caco-2 cells (Table 4) is given as “+++ (a Caco-2 value of >1)”.

On to `[2H]C([2H])([2H])c1nc2c(F)c(-c3cccc(Cl)c3Cl)c(CCC#N)cc2c2c1cc([C@H]1CCCN1C(=O)N1CC(F)(F)C1)n2[C@H]1[C@H]2CN[C@@H]1C2` [Example 42, 3-(1-((1R,4R,5S)-2-Azabicyclo[2.1.1]hexan-5-yl)-7-(2,3-dichlorophenyl)-2-((R)-1-(3,3-difluoroazetidine-1-carbonyl)pyrrolidin-2-yl)-6-fluoro-4-(methyl-d3)-1H-pyrrolo[3,2-c]quinolin-8-yl)propanenitrile], for which the IC50 at KRAS G12D and on KRAS G12V mutant was less than 0.1 µM in each case. The Caco-2 result in the series with Caco-2 cells (Table 4) is on record as “++ (a Caco-2 value of >0.5 but ≤1)”.
